Test results: US20180118747A1, “METHOD OF ISOLATING THEACRINE AND COMPOSITION COMPRISING THEACRINE” (ThermoLife International, LLC, priority 2017, published 2018)

Test: Effects of ingested theacrine versus fused theacrine as reported by human subjects
Type: in vivo
Conditions: oral ingestion
Protocol: Typically, theacrine's effects in human subjects start after 30 minutes of ingestion and last 6-8 hours.

"crash" felt when the theacrine level falls (subject-reported): feels a “crash.”
SMILES: Cn1c(=O)c2c(n(C)c1=O)n(C)c(=O)n2C [theacrine, 1,3,7,9-tetramethyluric acid]
start of theacrine's effects after ingestion: 30 min
duration of theacrine's effects (same amount of theacrine in both forms): 6 to 8 h
